Assay results as given in patent publication US5541186A, “Sulfonylaminopyrimidines” (Hoffmann-La Roche Inc., priority 1993, dated 1996).

Columns and labels:
human ETA receptors = target: T1, human ETA receptors (Homo sapiens, UniProt P25101); assay: Inhibition of endothelin binding to recombinant ETA receptors; details: 125I-endothelin 20 pM; 20° C. for 2 hours or 4° C. for 24 hours; baculovirus-insect cell membranes; read-out: IC50 (concentration required to inhibit 50% of the specific binding of 125I-endothelin)
T1 construct: made in house
T1 sequence (P25101 21-427): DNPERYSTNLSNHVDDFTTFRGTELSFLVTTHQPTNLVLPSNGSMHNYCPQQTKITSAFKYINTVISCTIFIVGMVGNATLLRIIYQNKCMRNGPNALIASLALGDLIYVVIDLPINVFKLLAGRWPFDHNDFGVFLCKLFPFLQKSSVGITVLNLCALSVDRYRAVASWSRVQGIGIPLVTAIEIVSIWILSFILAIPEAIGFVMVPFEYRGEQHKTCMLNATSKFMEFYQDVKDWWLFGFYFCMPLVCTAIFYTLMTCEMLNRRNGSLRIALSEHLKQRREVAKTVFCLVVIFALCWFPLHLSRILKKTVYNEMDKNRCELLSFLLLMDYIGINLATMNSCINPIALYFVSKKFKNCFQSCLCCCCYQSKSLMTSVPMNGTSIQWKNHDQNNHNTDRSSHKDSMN
Procedure: I: Inhibition of endothelin binding to recombinant ETA receptors
A cDNA coding for human ETA receptors of human placenta was cloned (M. Adachi, Y.-Y. Yang, Y. Furuichi and C. Miyamoto, BBRC 180, 1265-1272) and expressed in the baculovirus-insect cell system. Baculovirus-infected insect cells from a 23 l fermenter are centrifuged off (3000×g, 15 minutes, 4° C.) 60 hours after the infection, re-suspended in Tris buffer (5 mM, pH 7.4, 1 mM MgCl2) and again centrifuged. After a further re-suspension and centrifugation the cells are suspended in 800 ml of the same buffer and […] at -120° C. The cells disintegrate when the suspension in this hypotonic buffer mixture is thawed. After a repeated freeze-drying/thawing cycle the suspension is homogenized and centrifuged (25000 ×g, 15 minutes, 4° C.). After suspension in Tris buffer (75 mM, pH 7.4, 25 mM MgCl2, 250 mM saccharose) 1 ml aliquots (protein content about 3.5 mg/ml) are stored at -85° C.
For the binding assay, the […] membrane preparations are thawed and, after centrifugation at 20° C. and 25000 g for 10 minutes, re-suspended in assay buffer (50 mM Tris buffer, pH 7.4, containing 25 mM MnCl2, 1 mM EDTA and 0.5% bovine serum albumin). […] of this membrane suspension containing […] of protein are incubated with […] of ^125 I-endothelin (specific activity 2200 Ci/mMol) in assay buffer (25000 cpm, final concentration 20 pM) and […] of assay buffer containing varying concentrations of test compound. The incubation is carried out at 20° C. for 2 hours or at 4° C. for 24 hours. The separation of free and membrane-bound radio-ligands is carried out by filtration over a glass fiber filter.
The inhibitory activity of compounds of formula I determined in this test procedure is given in Table 1 as the IC50, i.e. as the concentration […] which is required to inhibit 50% of the specific binding of ^125 I-endothelin.

[1] = system: "stroke-prone", spontaneously hypertensive rats; assay: In vivo blood pressure in pathophysiologically relevant rat model (telemetry); details: 30 mg/kg in gum arabic, by probe
Procedure: A telemetric system (PA-C40 implant) was implanted into "stroke-prone", spontaneously hypertensive rats under anaesthesia in order that the arterial blood pressure and the heart rate could be measured continuously. The animals were left to recover for 2 weeks after the operation.
The corresponding test compound (30 mg/kg in gum arabic) was finally administered using a probe and the blood pressure was registered continuously. It became evident that compounds of formula I caused a fall in blood pressure, the administration of gum arabic alone (placebo control) having no significant effect on the blood pressure.

[2] = system: endothelin-induced contractions in isolated rat aorta rings; assay: Inhibition of endothelin-induced contractions in isolated rat aorta rings; assay type: cell-based, rat (adult Wistar-Kyoto); details: endothelin-1, no antagonist; half-maximum contraction; read-out: EC50 of endothelin in the absence of test compounds
Procedure: II. Inhibition of endothelin-induced contractions in isolated rat aorta rings
Rings with a length of 5 mm were cut out from the thorax aorta of adult Wistar-Kyoto rats. The endothelium was removed by lightly rubbing the internal surface. Each ring was immersed at 37° C. in 10 ml of Krebs-Henseleit solution in an isolated bath while gassing with 95% O2 and 5% CO2. The isometric stretching of the tings was measured. The rings were stretched to a pre-tension of 3 g. After incubation for 10 minutes with the test compound or vehicle cumulative dosages of endothelin-1 were added. The activity of the test compound was ascertained by the observed shift to the right of the dosage-activity curve of endothelin-1 in the presence of different concentrations of antagonist. This shift to the right (or "dose ratio", DR) corresponds to the quotient from the EC50 values of endothelin-1 in the presence and in the absence of antagonist, with the EC50 value denoting the endothelin concentration required for a half-maximum contraction.
The corresponding PA2 value, which is a measure of the activity of the test compound, was calculated using a computer programme according to the following equation from the "dose ratio" DR for each individual dosage-activity curve.
pA2 =log(DR-1)-log(antagonist-concentration)
The EC50 of endothelin in the absence of test compounds is 0.3 nM.

Compound	IC50 (human ETA receptors) [nM]	% Decrease in the average arterial blood pressure (mm Hg) [1] [%]	EC50 [2] [nM]
COc1ccc(Cl)c(Oc2c(NS(=O)(=O)c3ccc(C(C)(C)C)cc3)ncnc2OCCNC(=O)Nc2ccncc2)c1 [Example 134]	44	–	–
COc1ccc(Cl)c(Oc2c(NS(=O)(=O)c3ccc4c(c3)OCO4)ncnc2OCCOC(=O)OCc2ccccn2)c1 [Example 140, carboxylic acid 2-[6-(1,3-benzodioxol-5-ylsulfonylamino)-5-(2-chloro-5-methoxy-phenoxy)-pyrimidin-4-yloxy]-ethyl ester pyridin-2-ylmethyl ester]	9	–	–
endothelin: endothelin-1, agonist added in cumulative dosages to the rat aorta rings	–	–	0.3

Further lines, with some results ahead:

IC50 (human ETA receptors) [nM]	Compound	% Decrease in the average arterial blood pressure (mm Hg) [1] [%]	EC50 [2] [nM]
1	COCCc1nc(NS(=O)(=O)c2ccc3c(c2)OCO3)c(Oc2cc(OC)ccc2Cl)c(OCCOC(=O)Nc2ccccn2)n1 [Example 10, pyridine-2-ylcarbamic acid 2-[6-(1,3-benzodioxol-5-ylsulfonylamino)-5-(2-chloro-5-methoxy-phenoxy)-2-(2-methoxyethyl)-pyrimidin-4-yloxy]-ethyl ester]	–	–
6	COc1ccccc1Oc1c(NS(=O)(=O)c2ccc(C(C)(C)C)cc2)nc(-c2ncccn2)nc1OCCOC(=O)Nc1ccccn1 [Example 70, pyridin-2-ylcarbamic acid 2-[6-(4-tert-butyl-phenylsulfonylamino)-5-(2-methoxy-phenoxy)-2,2'-bipyrimidin-4-yloxy]-ethyl ester]	30	–
3	COc1ccccc1Oc1c(NS(=O)(=O)c2ccc(C(C)(C)C)cc2)nc(N2CCOCC2)nc1OCCOC(=O)Nc1ccco1 [Example 75, furan-2-ylcarbamicacid 2-[6-(4-tert-butyl-phenylsulfonylamino)-5-(2-methoxy-phenoxy)-2-morpholin-4-yl-pyrimidin-4-yloxy]-ethyl ester]	–	–
7	COc1ccc(S(=O)(=O)Nc2ncnc(OCCOC(=O)Nc3ccccn3)c2Oc2ccccc2OC)cc1CCC(=O)N1CCOCC1 [Example 120, pyridin-2-ylcarbamic acid 2-[6-[4-methoxy-3-(3-morpholin-4-yl-3-oxo-propyl)-phenylsulfonylamino]-5-(2-methoxy-phenoxy)-pyrimidin-4-yloxy]-ethyl ester]	–	–
